In patent US10266484B2, “Biodegradable lipids for the delivery of active agents” (ALNYLAM PHARMACEUTICALS, INC., priority 2010, dated 2019):

How the values were obtained:
[1] = Lipid concentration and pharmacokinetics in the liver of mice after intravenous administration; format: in vivo; conditions: mouse, male C57BL mice, lipid dose 0.3 mg/kg
Experimental: (§1) A study was conducted to determine the lipid profile and tissue clearance in mice for cationic lipids according to the present invention.
(§2) Male mice (C57BL, 20-30 g) were separated into four groups and administered (intravenously) either Compound 1, 2 or 3 of the present invention, or a Reference Lipid, as shown below in Table 20.
(§3) The mice were not fasted. Blood, liver and spleen samples were collected (two samples per time point per group) at 0.17, 8, 24, 72, 168, 336 and 672 hours post dose.

[2] = Concentration of mono-acid and di-acid metabolites in the liver of mice; format: in vivo, mice (C57BL); conditions: 0.3 mg/kg intravenous
Experimental: as §2, §3
The concentration of these metabolites was measured in the liver. All measurements after 24 hours (including those taken at 72, 168, 336, and 672 hours post-administration) were below the level of quantification (BLQ).

[3] = Lipid concentration and pharmacokinetics in the spleen of mice after intravenous administration; format: in vivo; conditions: mouse, male C57BL mice, lipid dose 0.3 mg/kg; for MRT last: read-out: MRT0-t (mean residence time)
Experimental: as §1, §2, §3

[4] = Concentration of metabolites of compounds 1-3 in the spleen of mice; format: in vivo, mice (C57BL)
Experimental: as §2, §3

[5] = Lipid concentration and pharmacokinetics in the plasma of mice after intravenous administration; format: in vivo; conditions: mouse, male C57BL mice, lipid dose 0.3 mg/kg
Experimental: as §1, §2, §3

[6] = Concentration of metabolites of compounds 1-3 in the plasma of mice; format: in vivo, mice (C57BL)
Experimental: as §2, §3
All measurements after 24 hours (including those taken at 72, 168, 336, and 672 hours post-administration) were below the level of quantification (BLQ).

[7] = Study to determine lipid profiles and tissue clearance in mice (overall conclusion); format: in vivo, mice (C57BL); conditions: liver, spleen and plasma (FIGS. 1, 3, 4; Tables 22, 24, 26)
Experimental: as §1, §2, §3

[8] = read-out: MRT0-t (mean residence time)

| SMILES | AUC [1] [µg·h/mL] | Cmax [1] [ng/mL] | Di-acid metabolite concentration ([2]; 24 hr post dose) | Mono-acid metabolite concentration ([2]; 24 hr post dose) | AUC [3] [µg·h/mL] | Cmax [3] [ng/mL] | MRT last [3] [h] | Concentration of di-acid metabolite in the spleen ([4]; 24 hr post dose) | Concentration of mono-acid metabolite in the spleen ([4]; 24 hr post dose) | Concentration of di-acid metabolite in the spleen ([4]; 72 hr post dose) | Concentration of mono-acid metabolite in the spleen ([4]; 72 hr post dose) | Concentration of di-acid metabolite in the spleen ([4]; 168 hr post dose) | Concentration of mono-acid metabolite in the spleen ([4]; 168 hr post dose) | Concentration of mono-acid metabolite in the spleen ([4]; 336 hr post dose) | Concentration of di-acid metabolite in the spleen ([4]; 672 hr post dose) | Concentration of mono-acid metabolite in the spleen ([4]; 672 hr post dose) | AUC [5] [µg·h/mL] | Cmax [5] [ng/mL] | Concentration of mono-acid metabolite in the plasma ([6]; 24 hr post dose) | Tissue clearance and activity compared to the Reference Lipid [7] | other results |
| --- | --- | --- | --- | --- | --- | --- | --- | --- | --- | --- | --- | --- | --- | --- | --- | --- | --- | --- | --- | --- | --- |
| CCCCCC/C=C\COC(=O)CCCCCCCC(CCCCCCCC(=O)OC/C=C\CCCCCC)OC(=O)CCCN(C)C [Compound 1, di((Z)-non-2-en-1-yl) 9-((4-(dimethylamino)butanoyl)oxy)heptadecanedioate] | 4.59 | 1140 | BLQ | BLQ | 42 | 7460 | 2.8 | BLQ | BLQ | BLQ | BLQ | BLQ | BLQ | BLQ | BLQ | BLQ | 155 | 38800 | BLQ | dramatically improved tissue clearance and activity | Concentration of di-acid metabolite in the spleen ([4]; 8 hr post dose): BLQ; Concentration of di-acid metabolite in the spleen ([4]; 336 hr post dose): BLQ; Concentration of di-acid metabolite in the plasma ([6]; 8 hr post dose): BLQ; Concentration of mono-acid metabolite in the plasma ([6]; 8 hr post dose): BLQ; Concentration of di-acid metabolite in the plasma ([6]; 24 hr post dose): BLQ |
| CCOC(=O)CCCC/C=C\CCCCCCCCC(CCCCCCCC/C=C\CCCCC(=O)OCC)OC(=O)CCCN(C)C [Compound 2] | 0.436 | 118 | BLQ | BLQ | 238 | 13600 | 11.1 | BLQ |  | BLQ | BLQ | BLQ | BLQ | BLQ | BLQ | BLQ | 116 | 28800 | BLQ | dramatically improved tissue clearance and activity | Concentration of di-acid metabolite in the spleen ([4]; 336 hr post dose): BLQ; Concentration of di-acid metabolite in the plasma ([6]; 24 hr post dose): BLQ |
| COC(=O)CCCCCCC/C=C\CCCCCCCCC(CCCCCCCC/C=C\CCCCCCCC(=O)OC)OC(=O)CCCN(C)C [Compound 3] |  | 208 | BLQ | BLQ | 18.7 | 4370 | 0.7 |  | BLQ |  | BLQ |  | BLQ | BLQ | BLQ | BLQ | 122 | 30600 | BLQ | dramatically improved tissue clearance and activity | Di-acid metabolite concentration ([2]; 8 hr post dose): BLQ; Mono-acid metabolite concentration ([2]; 8 hr post dose): BLQ; Concentration of mono-acid metabolite in the plasma ([6]; 8 hr post dose): BLQ |
| CCCCC/C=C\C/C=C\CCCCCCCCOCC(CN(C)C)OCCCCCCCC/C=C\C/C=C\CCCCC (centres unmarked) [Reference Lipid, reference compound] | 6950 | 22400 |  |  | 3430 | 9150 | 230 |  |  |  |  |  |  |  |  |  | 63.8 | 2110 |  |  | MRT last [1, 8]: 221 h; MRT last [5, 8]: 201 h |
